We go through five compounds from US20190119729A1, “METHOD OF DETECTING AND TREATING P. ACNES AND KIT THEREOF” (priority 2016, published 2019).

The test system of experiment [1] is P. acnes clinical isolates (clindamycin resistant). In words: Antimicrobial susceptibility of clindamycin resistant P. acnes clinical isolates against various antibiotics (Table 2). The experiment is classed as cell-based. The note with it: for MIC: Cutibacterium acnes; for susceptibility of the strains as indicated by MIC values: all the clindamycin, erythromycin resistant strains of Table 2. An excerpt: Various clinical isolates are obtained from patients carrying Clindamycin Resistant P. acnes and their antimicrobial susceptibility to fluoroquinolone antibiotics is studied vis-à-vis susceptibility to Clindamycin and Erythromycin.

In the next experiment the test system is P. acnes isolates. In words: Antimicrobial susceptibility patterns of P. acnes isolates against different antibiotics (Table 1). It counts as cell-based. Conditions: Cutibacterium acnes. An excerpt: Table 1 below depicts the antimicrobial susceptibility patterns of P. acnes isolates against different antibiotics: […]
The subject of a further experiment is P. acnes. The note with it: in those receiving prolonged antibiotic therapy with the drug (Leyden et al 1983); cited from earlier work.
[2] abbreviates: isolate V21A1, phylotype IA1, type IV, 23S rRNA A2059G.
[3] abbreviates: isolate V21A2, phylotype IB, type I, 23S rRNA A2058G.
Setting [4] is: isolate V21A3, phylotype IB, type I, 23S rRNA A2058G.
Where [5] appears, read: isolate V21A4, phylotype IB, type I, 23S rRNA A2058G.
Setting [6] is: isolate V21A5, phylotype IA1, type IV, 23S rRNA A2059G.
The mark [7] stands for this setting: isolate V21A6, phylotype IA1, type IV, 23S rRNA A2059G.
The mark [8] stands for this setting: isolate V21A7, phylotype IA1, type IV, 23S rRNA A2059G.
The mark [9] stands for this setting: isolate V21A8, phylotype IA1, type IV, 23S rRNA A2059G.
Setting [10] is: isolate V21A9, phylotype IB, type I, 23S rRNA A2058G.
[11] abbreviates: isolate V21A10, phylotype IB, type I, 23S rRNA A2058G.
Where [12] appears, read: isolate V21B2, phylotype IB, type I, 23S rRNA A2058G.
The mark [13] stands for this setting: isolate V21B4, phylotype IB, type I, 23S rRNA A2058G.
Setting [14] is: isolate V21B6, phylotype IB, type I, 23S rRNA A2058G.
Where [15] appears, read: isolate V21B7, phylotype IB, type I, 23S rRNA A2058G.
[16] abbreviates: isolate V21B8, phylotype IB, type I, 23S rRNA A2058G.

Values after ≈ are worked out from the molar mass of the structure shown.

Take `C[C@H]1COc2c(N3CCN(C)CC3)c(F)cc3c(=O)c(C(=O)O)cn1c23` [Levofloxacin, levofloxacin]: the MIC is under 0.13 µg/mL in experiment [1] (P. acnes strain V21A-1); under 0.13 µg/mL in experiment [1] (P. acnes strain V21A-5); under 0.13 µg/mL in experiment [1] (P. acnes strain V21A-8); 0.5 µg/mL (≈ 1.38 µM) in experiment [1] (P. acnes strain V21B-1); 0.3 µg/mL (≈ 0.83 µM) in experiment [1] (P. acnes strain V21B-2); 0.5 µg/mL (≈ 1.38 µM) in experiment [1] (P. acnes strain V21B-3). Moreover, the minimal inhibitory concentration (MIC) amounted to 0.5 µg/mL (≈ 1.38 µM) in experiment [1] (P. acnes strain V21B-4); 0.5 µg/mL (≈ 1.38 µM) in experiment [1] (P. acnes strain V21B-5); 0.5 µg/mL (≈ 1.38 µM) in experiment [1] (P. acnes strain V21B-6); 0.3 µg/mL (≈ 0.83 µM) in experiment [1] (P. acnes strain V21B-7); 0.5 µg/mL (≈ 1.38 µM) in experiment [1] (P. acnes strain V21B-8).
For the compound `N[C@@H]1CCCCN(c2c(F)cc3c(=O)c(C(=O)O)cn(C4CC4)c3c2Cl)C1` [Besifloxacin, besifloxacin], the minimal inhibitory concentration (MIC) was found to be 0.13 µg/mL (≈ 0.33 µM) in experiment [1] (P. acnes strain V21A-7); 0.5 µg/mL (≈ 1.27 µM) in experiment [1] (P. acnes strain V21B-1); 0.25 µg/mL (≈ 0.635 µM) in experiment [1] (P. acnes strain V21B-2); 0.25 µg/mL (≈ 0.635 µM) in experiment [1] (P. acnes strain V21B-3); 0.25 µg/mL (≈ 0.635 µM) in experiment [1] (P. acnes strain V21B-4); 0.5 µg/mL (≈ 1.27 µM) in experiment [1] (P. acnes strain V21B-5). The MIC in experiment [1] (P. acnes strain V21B-6), in experiment [1] (P. acnes strain V21B-7) and in experiment [1] (P. acnes strain V21B-8) was 0.25 µg/mL (≈ 0.635 µM) in each case. The “susceptibility of the strains as indicated by MIC values” in experiment [1] is “susceptible”.
As to `CC[C@H]1OC(=O)[C@H](C)[C@@H](O[C@H]2C[C@@](C)(OC)[C@@H](O)[C@H](C)O2)[C@H](C)[C@@H](O[C@@H]2O[C@H](C)C[C@H](N(C)C)[C@H]2O)[C@](C)(O)C[C@@H](C)C(=O)[C@H](C)[C@@H](O)[C@]1(C)O` [Erythromycin, erythromycin], the minimal inhibitory concentration (MIC) against P. acnes isolates (setting [2]) fell in the range of 50 to 200 µg/mL (≈ 68.1 to 273 µM); with P. acnes isolates (setting [3]) it was 50 to 200 µg/mL (≈ 68.1 to 273 µM); against P. acnes isolates (setting [4]) it was 100 to 200 µg/mL (≈ 136 to 273 µM); with P. acnes isolates (setting [5]), 100 to 200 µg/mL (≈ 136 to 273 µM); with P. acnes isolates (setting [6]), 100 to 200 µg/mL (≈ 136 to 273 µM); with P. acnes isolates (setting [7]) it was 100 to 200 µg/mL (≈ 136 to 273 µM). Further, the minimal inhibitory concentration (MIC) is 100 to 200 µg/mL (≈ 136 to 273 µM) against P. acnes isolates (setting [8]); 100 to 200 µg/mL (≈ 136 to 273 µM) with P. acnes isolates (setting [9]); 100 to 200 µg/mL (≈ 136 to 273 µM) with P. acnes isolates (setting [10]); 100 to 200 µg/mL (≈ 136 to 273 µM) in the experiment on P. acnes isolates (setting [11]); over 200 µg/mL against P. acnes isolates (setting [12]); over 200 µg/mL with P. acnes isolates (isolate V21B3, phylotype IB, type I, 23S rRNA A2058G). Moreover, the MIC against P. acnes isolates (setting [13]) is over 200 µg/mL; in the experiment on P. acnes isolates (setting [14]), over 200 µg/mL; with P. acnes isolates (setting [15]), over 200 µg/mL; in the experiment on P. acnes isolates (setting [16]), over 200 µg/mL; in experiment [1] (P. acnes strain V21A-1), 50 to 200 µg/mL (≈ 68.1 to 273 µM); in experiment [1] (P. acnes strain V21A-2), 50 to 200 µg/mL (≈ 68.1 to 273 µM). The minimum inhibitory concentration (MIC) in experiment [1] (P. acnes strain V21A-3), in experiment [1] (P. acnes strain V21A-4), in experiment [1] (P. acnes strain V21A-5), in experiment [1] (P. acnes strain V21A-6), in experiment [1] (P. acnes strain V21A-7) and in experiment [1] (P. acnes strain V21A-8) was 100 to 200 µg/mL (≈ 136 to 273 µM) in each case. The minimum inhibitory concentration (MIC) in experiment [1] (P. acnes strain V21A-9) is 100 to 200 µg/mL (≈ 136 to 273 µM); in experiment [1] (P. acnes strain V21A-10), 100 to 200 µg/mL (≈ 136 to 273 µM); in experiment [1] (P. acnes strain V21B-1) it was over 200 µg/mL; in experiment [1] (P. acnes strain V21B-2), over 200 µg/mL; in experiment [1] (P. acnes strain V21B-3) it was over 200 µg/mL; in experiment [1] (P. acnes strain V21B-4), 200 µg/mL (≈ 273 µM). The minimum inhibitory concentration (MIC) in experiment [1] (P. acnes strain V21B-5), in experiment [1] (P. acnes strain V21B-6), in experiment [1] (P. acnes strain V21B-7) and in experiment [1] (P. acnes strain V21B-8) was over 200 µg/mL throughout. For the same compound, in the experiment with P. acnes, the “increase of average MIC” value is reported as 100 fold.
Turning to `CCC[C@@H]1C[C@@H](C(=O)N[C@@H]([C@H]2O[C@H](SC)[C@H](O)[C@@H](O)[C@H]2O)[C@H](C)Cl)N(C)C1` [Clindamycin, clindamycin], the MIC against P. acnes isolates (setting [2]) was 1 to 8 µg/mL (≈ 2.35 to 18.8 µM); in the experiment with P. acnes isolates (setting [3]), 8 to 64 µg/mL (≈ 18.8 to 151 µM); in the experiment on P. acnes isolates (setting [4]), 8 to 32 µg/mL (≈ 18.8 to 75.3 µM); in the experiment with P. acnes isolates (setting [5]), 16 to 64 µg/mL (≈ 37.6 to 151 µM); with P. acnes isolates (setting [6]), 1 µg/mL (≈ 2.35 µM); in the experiment on P. acnes isolates (setting [7]) it was 1 to 2 µg/mL (≈ 2.35 to 4.71 µM). Also, the MIC lay in the range of 0.5 to 2 µg/mL (≈ 1.18 to 4.71 µM) in the experiment with P. acnes isolates (setting [8]); 1 to 2 µg/mL (≈ 2.35 to 4.71 µM) against P. acnes isolates (setting [9]); 16 to 32 µg/mL (≈ 37.6 to 75.3 µM) against P. acnes isolates (setting [10]); 16 to 64 µg/mL (≈ 37.6 to 151 µM) in the experiment on P. acnes isolates (setting [11]); 16 to 64 µg/mL (≈ 37.6 to 151 µM) in the experiment with P. acnes isolates (setting [12]); 32 to 64 µg/mL (≈ 75.3 to 151 µM) in the experiment on P. acnes isolates (setting [13]). The MIC was 16 to 64 µg/mL (≈ 37.6 to 151 µM) in the experiment with P. acnes isolates (setting [14]); 16 to 64 µg/mL (≈ 37.6 to 151 µM) against P. acnes isolates (setting [15]); 16 to 64 µg/mL (≈ 37.6 to 151 µM) against P. acnes isolates (setting [16]); 1 to 8 µg/mL (≈ 2.35 to 18.8 µM) in experiment [1] (P. acnes strain V21A-1); 8 to 64 µg/mL (≈ 18.8 to 151 µM) in experiment [1] (P. acnes strain V21A-2); 8 to 32 µg/mL (≈ 18.8 to 75.3 µM) in experiment [1] (P. acnes strain V21A-3). Besides, the MIC was 1 µg/mL (≈ 2.35 µM) in experiment [1] (P. acnes strain V21A-5); 1 to 2 µg/mL (≈ 2.35 to 4.71 µM) in experiment [1] (P. acnes strain V21A-6); 0.5 to 2 µg/mL (≈ 1.18 to 4.71 µM) in experiment [1] (P. acnes strain V21A-7); 1 to 2 µg/mL (≈ 2.35 to 4.71 µM) in experiment [1] (P. acnes strain V21A-8); 16 to 32 µg/mL (≈ 37.6 to 75.3 µM) in experiment [1] (P. acnes strain V21A-9); 64 µg/mL (≈ 151 µM) in experiment [1] (P. acnes strain V21B-1). In addition, the MIC in experiment [1] (P. acnes strain V21B-2) is 16 to 64 µg/mL (≈ 37.6 to 151 µM); in experiment [1] (P. acnes strain V21B-3), 64 µg/mL (≈ 151 µM); in experiment [1] (P. acnes strain V21B-4) it was 32 to 64 µg/mL (≈ 75.3 to 151 µM); in experiment [1] (P. acnes strain V21B-5) it was 1 to 4 µg/mL (≈ 2.35 to 9.41 µM); in experiment [1] (P. acnes strain V21B-6), 16 to 64 µg/mL (≈ 37.6 to 151 µM); in experiment [1] (P. acnes strain V21B-7) it was 16 to 64 µg/mL (≈ 37.6 to 151 µM). The same compound showed an MIC in experiment [1] (P. acnes strain V21B-8) of 16 to 64 µg/mL (≈ 37.6 to 151 µM).
As to `CC1CCc2c(N3CCC(O)CC3)c(F)cc3c(=O)c(C(=O)O)cn1c23` (centres unmarked) [Nadifloxacin, nadifloxacin], the MIC in experiment [1] (P. acnes strain V21A-1) is under 0.13 µg/mL; in experiment [1] (P. acnes strain V21A-2), 0.3 µg/mL (≈ 0.832 µM); in experiment [1] (P. acnes strain V21A-4), 0.3 µg/mL (≈ 0.832 µM); in experiment [1] (P. acnes strain V21A-5), under 0.13 µg/mL; in experiment [1] (P. acnes strain V21A-6), 0.3 µg/mL (≈ 0.832 µM); in experiment [1] (P. acnes strain V21A-8), under 0.13 µg/mL. The minimum inhibitory concentration (MIC) in experiment [1] (P. acnes strain V21A-9) was determined as 0.3 µg/mL (≈ 0.832 µM); in experiment [1] (P. acnes strain V21A-10) it was 0.3 µg/mL (≈ 0.832 µM); in experiment [1] (P. acnes strain V21B-1), 0.5 µg/mL (≈ 1.39 µM); in experiment [1] (P. acnes strain V21B-2), 0.5 µg/mL (≈ 1.39 µM); in experiment [1] (P. acnes strain V21B-3), 0.5 µg/mL (≈ 1.39 µM); in experiment [1] (P. acnes strain V21B-4), 0.5 µg/mL (≈ 1.39 µM). For the same compound, the MIC in experiment [1] (P. acnes strain V21B-5), in experiment [1] (P. acnes strain V21B-6), in experiment [1] (P. acnes strain V21B-7) and in experiment [1] (P. acnes strain V21B-8) was 0.5 µg/mL (≈ 1.39 µM) throughout. Also, the “susceptibility of the strains as indicated by MIC values” in experiment [1] is on record as “susceptible”.

What is called MIC is the lowest concentration found to suppress growth. Higher therefore signals a less susceptible organism.
